Laboratory results published in ChEMBL document CHEMBL6071202, “Design, Synthesis, and Biological Evaluation of 3-Amino-pyrazine-2-carboxamide Derivatives as Novel FGFR Inhibitors” (ACS Med Chem Lett, 2024).

How the values were obtained:
[1] = target: Fibroblast growth factor receptor 2 (Homo sapiens, UniProt P21802); experiment: Inhibition of FGFR2 (unknown origin)
[2] = target: T1, Receptor-type tyrosine-protein kinase FLT3 (Homo sapiens, UniProt P36888); experiment: Inhibition of FLT3 (unknown origin) by immobilized metal ion affinity-based fluorescence polarization
T1 sequence (P36888 whole entry): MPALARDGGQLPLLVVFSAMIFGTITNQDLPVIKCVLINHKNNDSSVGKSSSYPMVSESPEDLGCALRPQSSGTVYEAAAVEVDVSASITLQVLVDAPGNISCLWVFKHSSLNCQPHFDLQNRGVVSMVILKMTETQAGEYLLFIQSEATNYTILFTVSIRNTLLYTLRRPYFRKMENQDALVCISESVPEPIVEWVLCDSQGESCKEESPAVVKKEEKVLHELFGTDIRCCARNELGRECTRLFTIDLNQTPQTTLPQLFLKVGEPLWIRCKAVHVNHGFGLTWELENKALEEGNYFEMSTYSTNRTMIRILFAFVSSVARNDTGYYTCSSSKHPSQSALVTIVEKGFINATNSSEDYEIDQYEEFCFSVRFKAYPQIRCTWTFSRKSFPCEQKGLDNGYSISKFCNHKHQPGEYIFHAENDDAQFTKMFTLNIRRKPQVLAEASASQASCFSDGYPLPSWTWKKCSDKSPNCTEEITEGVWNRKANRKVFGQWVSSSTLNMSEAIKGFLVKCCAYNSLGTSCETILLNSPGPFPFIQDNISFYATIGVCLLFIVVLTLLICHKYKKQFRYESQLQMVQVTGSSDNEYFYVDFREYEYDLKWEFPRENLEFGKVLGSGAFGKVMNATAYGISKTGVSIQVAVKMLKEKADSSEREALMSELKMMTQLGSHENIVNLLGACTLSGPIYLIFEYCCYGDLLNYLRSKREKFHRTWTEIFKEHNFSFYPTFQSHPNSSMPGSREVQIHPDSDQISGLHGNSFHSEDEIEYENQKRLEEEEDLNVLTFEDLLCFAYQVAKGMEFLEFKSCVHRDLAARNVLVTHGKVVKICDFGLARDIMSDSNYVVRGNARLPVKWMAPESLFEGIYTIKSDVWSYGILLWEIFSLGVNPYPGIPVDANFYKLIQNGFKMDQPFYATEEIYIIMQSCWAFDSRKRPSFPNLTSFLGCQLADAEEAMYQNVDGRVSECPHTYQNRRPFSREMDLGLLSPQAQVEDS

Sequence of Fibroblast growth factor receptor 2 (P21802 whole entry): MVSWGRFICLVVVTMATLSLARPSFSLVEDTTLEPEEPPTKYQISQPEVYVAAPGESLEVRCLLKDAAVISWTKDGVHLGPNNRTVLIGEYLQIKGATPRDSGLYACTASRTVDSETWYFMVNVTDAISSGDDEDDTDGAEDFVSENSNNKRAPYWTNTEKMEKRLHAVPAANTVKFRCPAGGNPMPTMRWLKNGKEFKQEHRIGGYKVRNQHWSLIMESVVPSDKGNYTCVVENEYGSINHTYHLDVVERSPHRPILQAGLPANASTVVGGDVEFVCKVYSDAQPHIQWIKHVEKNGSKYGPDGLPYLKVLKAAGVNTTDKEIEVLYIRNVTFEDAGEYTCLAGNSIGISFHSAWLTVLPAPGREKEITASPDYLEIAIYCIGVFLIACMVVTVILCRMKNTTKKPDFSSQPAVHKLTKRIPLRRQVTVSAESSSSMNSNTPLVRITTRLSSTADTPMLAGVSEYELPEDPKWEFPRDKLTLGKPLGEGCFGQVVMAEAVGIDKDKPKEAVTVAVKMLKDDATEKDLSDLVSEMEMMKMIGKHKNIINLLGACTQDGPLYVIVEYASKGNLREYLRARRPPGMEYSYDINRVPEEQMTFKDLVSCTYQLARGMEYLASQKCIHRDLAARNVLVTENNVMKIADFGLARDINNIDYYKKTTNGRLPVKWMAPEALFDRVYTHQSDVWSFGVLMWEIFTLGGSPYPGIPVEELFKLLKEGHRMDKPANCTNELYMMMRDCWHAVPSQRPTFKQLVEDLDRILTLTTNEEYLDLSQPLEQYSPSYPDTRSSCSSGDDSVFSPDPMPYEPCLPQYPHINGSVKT

IC50 [1]: 120 nM
IC50 [2]: 6 nM
SMILES: Nc1ncc(-c2ccncc2)nc1Nc1ccc2[nH]ccc2c1 [AKN-028]
